Test results from US8652718B2, “Resin composition, image-forming material, and image-forming method” (Fuji Xerox Co., Ltd., priority 2012, dated 2014).
≈ marks a conversion by molar mass, not a printed value. Read-outs that look alike come from different tables or passages of the source.

Assays:
[1] = Measurement of solubility in tetrahydrofuran; type: physicochemical; details: for solubility: tetrahydrofuran, 24 °C, organic solvent or mixture, thermodynamic from solid, 24±1° C.; for Solubility in tetrahydrofuran compared to Formulae (II-1) and (II-2): comparison in words from Table 1
Protocol: The solubility of the compound represented by Formula (I-1) in tetrahydrofuran (24±1° C.) is measured in the following manner.
After 10.00 mg of the compound (dark brown solid) represented by Formula (I-1) is mixed with 5.00 ml of tetrahydrofuran in a screw vial, the vial is irradiated with ultrasonic waves for 30 minutes while the vial is sealed with a cap, and left to stand overnight at room temperature. The obtained solution is filtered through a membrane filter having a pore size of 25 nm, and a dry weight of the dark brown solid remaining on the filter is measured. As a result, the weight of the compound represented by Formula (I-1) dissolved in 5.00 ml of tetrahydrofuran is found, whereby the solubility in tetrahydrofuran may be calculated.

[2] = Visible near-infrared absorption spectrum in a tetrahydrofuran solution; type: physicochemical
Excerpt: The dark brown solid obtained as above is identified by an infrared absorption spectrum (KBr tablet method), a ^1H-NMR spectrum, a mass spectrum, and a visible near-infrared absorption spectrum. As a result, the dark brown solid described above is confirmed to have a molecular structure represented by Formula (I-1).
Visible Near-Infrared Absorption Spectrum (FIG. 1): […]

[3] = read-out: Solubility in tetrahydrofuran
[4] = read-out: Solubility in tetrahydrofuran, Relative evaluation

Row | SMILES | solubility [1, 3] | solubility [1, 4] | Maximum absorption wavelength (λmax) [2] | Molar absorption coefficient at the maximum absorption wavelength (εmax) [2] | Solubility in tetrahydrofuran compared to Formulae (II-1) and (II-2) [1]
1 | CCc1ccc(C2=CC(=CC3=C([O-])/C(=C/c4cc(-c5ccc(CC)cc5)[s+]c(-c5ccc(CC)cc5)c4)C3=O)C=C(c3ccc(CC)cc3)S2)cc1 [Formula I-3] | 600 µg/mL | 100 to 1000 µg/mL | 908 nm | 180000 M⁻¹ cm⁻¹ | superior solubility in tetrahydrofuran
2 | CCCCc1ccc(C2=CC(=CC3=C([O-])/C(=C/c4cc(-c5ccc(CCCC)cc5)[s+]c(-c5ccc(CCCC)cc5)c4)C3=O)C=C(c3ccc(CCCC)cc3)S2)cc1 [Formula I-2] | 1100 µg/mL | ≥ 1000 µg/mL | 910 nm | 210000 M⁻¹ cm⁻¹ | superior solubility in tetrahydrofuran
3 | CC(C)(C)c1ccc(C2=CC(=CC3=C([O-])/C(=C/c4cc(-c5ccc(C(C)(C)C)cc5)[s+]c(-c5ccc(C(C)(C)C)cc5)c4)C3=O)C=C(c3ccc(C(C)(C)C)cc3)S2)cc1 [Formula I-1] | 1300 µg/mL | ≥ 1000 µg/mL | 908 nm | 269000 M⁻¹ cm⁻¹ | superior solubility in tetrahydrofuran

Results, then the molecule that gave them:

Row | solubility [1, 3] | solubility [1, 4] | Maximum absorption wavelength (λmax) [2] | Molar absorption coefficient at the maximum absorption wavelength (εmax) [2] | Solubility in tetrahydrofuran compared to Formulae (II-1) and (II-2) [1] | SMILES
4 | 300 µg/mL (≈ 455 µM) | 100 to 1000 µg/mL (≈ 152 to 1520 µM) | 905 nm | 190000 M⁻¹ cm⁻¹ | – | Cc1ccc(C2=CC(=CC3=C([O-])/C(=C/c4cc(-c5ccc(C)cc5)[s+]c(-c5ccc(C)cc5)c4)C3=O)C=C(c3ccc(C)cc3)S2)cc1 [II-2, reference compound]
5 | 1100 µg/mL (≈ 1170 µM) | ≥ 1000 µg/mL | 910 nm | 200000 M⁻¹ cm⁻¹ | – | CCCCCCc1ccc(C2=CC(=CC3=C([O-])/C(=C/c4cc(-c5ccc(CCCCCC)cc5)[s+]c(-c5ccc(CCCCCC)cc5)c4)C3=O)C=C(c3ccc(CCCCCC)cc3)S2)cc1 [II-3, reference compound]
6 | < 50 µg/mL | < 100 µg/mL | 901 nm | 207000 M⁻¹ cm⁻¹ | – | O=C1C(C=C2C=C(c3ccccc3)SC(c3ccccc3)=C2)=C([O-])/C1=C/c1cc(-c2ccccc2)[s+]c(-c2ccccc2)c1 [II-1, reference compound]
